PubChem BioAssay AID2060509 (Molecular Pharmacology Branch, DTP, NCI, 2025)

Tested on: 485176-168-R4-J1-PDC spheroids with HUVEC/MSC, viability
Assay: Anticancer human tumor 485176-168-R4-J1-PDC patient-derived pancreatic adenocarcinoma cell line growth inhibition [GQUAD]
Conditions: for IC50: curve of first compound; for viability, T/C: stronger effect = lower value
Procedure, shortened: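 Viability of tumor cells grown as complex spheroids with endothelial and stromal cells, exposed to drug combinations. Top concentration at or near clinical Cmax (else 10 microM), diluted in half-log increments.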

[1] = second compound 0.0316 µM, first compound 0.0316 µM
[2] = second compound 0.0316 µM, first compound 0.1 µM
[3] = second compound 0.0316 µM, first compound 0.316 µM
[4] = second compound 0.0316 µM, first compound 1 µM
[5] = second compound 0.0316 µM, first compound 3.16 µM
[6] = second compound 0.0316 µM, first compound 10 µM
[7] = second compound 0.1 µM, first compound 0.0316 µM
[8] = second compound 0.1 µM, first compound 0.1 µM
[9] = second compound 0.1 µM, first compound 0.316 µM
[10] = second compound 0.1 µM, first compound 1 µM
[11] = second compound 0.1 µM, first compound 3.16 µM
[12] = second compound 0.1 µM, first compound 10 µM
[13] = second compound 0.316 µM, first compound 0.0316 µM
[14] = second compound 0.316 µM, first compound 0.1 µM
[15] = second compound 0.316 µM, first compound 0.316 µM
[16] = second compound 0.316 µM, first compound 1 µM
[17] = second compound 0.316 µM, first compound 3.16 µM
[18] = second compound 0.316 µM, first compound 10 µM
[19] = second compound 1 µM, first compound 0.0316 µM
[20] = second compound 1 µM, first compound 0.1 µM
[21] = second compound 1 µM, first compound 0.316 µM
[22] = second compound 1 µM, first compound 1 µM
[23] = second compound 1 µM, first compound 3.16 µM
[24] = second compound 1 µM, first compound 10 µM
[25] = second compound 3.16 µM, first compound 0.0316 µM
[26] = second compound 3.16 µM, first compound 0.1 µM
[27] = second compound 3.16 µM, first compound 0.316 µM
[28] = second compound 3.16 µM, first compound 1 µM
[29] = second compound 3.16 µM, first compound 3.16 µM
[30] = second compound 3.16 µM, first compound 10 µM
[31] = second compound 10 µM, first compound 0.0316 µM
[32] = second compound 10 µM, first compound 0.1 µM
[33] = second compound 10 µM, first compound 0.316 µM
[34] = second compound 10 µM, first compound 1 µM
[35] = second compound 10 µM, first compound 3.16 µM
[36] = second compound 10 µM, first compound 10 µM
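Note: spheroids exposed to compounds for seven days before readout.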
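Throughout, for viability, T/C: percent viability relative to DMSO vehicle control wells as 100%.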

C#Cc1c(F)ccc2cc(O)cc(-c3ncc4c(N5CC6CCC(C5)N6)nc(OCC56CCCN5CC(F)C6)nc4c3F)c12 (stereo not given) + CN(C)c1ccc(Nc2c3ccc(NC(=O)CCN4CCCC4)cc3nc3cc(NC(=O)CCN4CCCC4)ccc23)cc1
IC50 (second compound 0.0316 µM): > 10 µM | IC50 (second compound 0.1 µM): > 10 µM | IC50 (second compound 0.316 µM): > 10 µM | IC50 (second compound 1 µM): > 10 µM | IC50 (second compound 3.16 µM): > 10 µM | IC50 (second compound 10 µM): > 10 µM | viability, T/C [1]: 119% | viability, T/C [2]: 106% | viability, T/C [3]: 103% | viability, T/C [4]: 106% | viability, T/C [5]: 95.6% | viability, T/C [6]: 98.2% | viability, T/C [7]: 112% | viability, T/C [8]: 99.5% | viability, T/C [9]: 91.9% | viability, T/C [10]: 97.9% | viability, T/C [11]: 120% | viability, T/C [12]: 116% | viability, T/C [13]: 97.4% | viability, T/C [14]: 81.8% | viability, T/C [15]: 105% | viability, T/C [16]: 102% | viability, T/C [17]: 95.5% | viability, T/C [18]: 85.5% | viability, T/C [19]: 91.6% | viability, T/C [20]: 90.8% | viability, T/C [21]: 99.3% | viability, T/C [22]: 111% | viability, T/C [23]: 94.6% | viability, T/C [24]: 94.3% | viability, T/C [25]: 113% | viability, T/C [26]: 96.2% | viability, T/C [27]: 103% | viability, T/C [28]: 94.4% | viability, T/C [29]: 99.4% | viability, T/C [30]: 78.2% | viability, T/C [31]: 89.8% | viability, T/C [32]: 104% | viability, T/C [33]: 82.5% | viability, T/C [34]: 91.9% | viability, T/C [35]: 70.8% | viability, T/C [36]: 54.3%

Nc1ccn(C2OC(CO)C(O)C2(F)F)c(=O)n1 (stereo not given) + CN(C)c1ccc(Nc2c3ccc(NC(=O)CCN4CCCC4)cc3nc3cc(NC(=O)CCN4CCCC4)ccc23)cc1
IC50 (second compound 0.0316 µM): 0.0491 µM | IC50 (second compound 0.1 µM): 0.0459 µM | IC50 (second compound 0.316 µM): 0.0436 µM | IC50 (second compound 1 µM): 0.0612 µM | IC50 (second compound 3.16 µM): 0.0559 µM | IC50 (second compound 10 µM): 0.0413 µM | viability, T/C [1]: 70.3% | viability, T/C [2]: 17.4% | viability, T/C [3]: 10.6% | viability, T/C [4]: 9.81% | viability, T/C [5]: 10.5% | viability, T/C [6]: 12.1% | viability, T/C [7]: 63.7% | viability, T/C [8]: 22% | viability, T/C [9]: 10.5% | viability, T/C [10]: 10.5% | viability, T/C [11]: 10.3% | viability, T/C [12]: 10.9% | viability, T/C [13]: 62.1% | viability, T/C [14]: 19.4% | viability, T/C [15]: 10.4% | viability, T/C [16]: 10.9% | viability, T/C [17]: 10.5% | viability, T/C [18]: 13.7% | viability, T/C [19]: 90.1% | viability, T/C [20]: 20.1% | viability, T/C [21]: 10.6% | viability, T/C [22]: 12.5% | viability, T/C [23]: 11.6% | viability, T/C [24]: 9.65% | viability, T/C [25]: 81.3% | viability, T/C [26]: 18.1% | viability, T/C [27]: 10.6% | viability, T/C [28]: 11.5% | viability, T/C [29]: 10% | viability, T/C [30]: 11.9% | viability, T/C [31]: 58% | viability, T/C [32]: 23.7% | viability, T/C [33]: 10.4% | viability, T/C [34]: 10.9% | viability, T/C [35]: 11.1% | viability, T/C [36]: 11.2%

C=CC(=O)N1CCN(c2nc(=O)n(-c3c(C)ccnc3C(C)C)c3nc(-c4c(O)cccc4F)c(F)cc23)C(C)C1 (stereo not given) + Cc1[nH]c2ccc(F)cc2c1-c1nc2c3cccnc3c3ncccc3c2[nH]1
IC50 (second compound 0.0316 µM): > 10 µM | IC50 (second compound 0.1 µM): > 10 µM | IC50 (second compound 0.316 µM): > 10 µM | IC50 (second compound 1 µM): > 10 µM | IC50 (second compound 3.16 µM): > 10 µM | IC50 (second compound 10 µM): > 10 µM | viability, T/C [1]: 114% | viability, T/C [2]: 100% | viability, T/C [3]: 103% | viability, T/C [4]: 89.4% | viability, T/C [5]: 122% | viability, T/C [6]: 102% | viability, T/C [7]: 80.1% | viability, T/C [8]: 109% | viability, T/C [9]: 116% | viability, T/C [10]: 112% | viability, T/C [11]: 117% | viability, T/C [12]: 102% | viability, T/C [13]: 87.3% | viability, T/C [14]: 86.4% | viability, T/C [15]: 92% | viability, T/C [16]: 101% | viability, T/C [17]: 111% | viability, T/C [18]: 96.7% | viability, T/C [19]: 96.7% | viability, T/C [20]: 86.5% | viability, T/C [21]: 104% | viability, T/C [22]: 103% | viability, T/C [23]: 113% | viability, T/C [24]: 104% | viability, T/C [25]: 91.7% | viability, T/C [26]: 95.5% | viability, T/C [27]: 108% | viability, T/C [28]: 83.6% | viability, T/C [29]: 92.1% | viability, T/C [30]: 90.8% | viability, T/C [31]: 87.3% | viability, T/C [32]: 105% | viability, T/C [33]: 78.1% | viability, T/C [34]: 80.8% | viability, T/C [35]: 87.7% | viability, T/C [36]: 76.5%

CCCS(=O)(=O)Nc1ccc(F)c(C(=O)c2c[nH]c3ncc(-c4ccc(Cl)cc4)cc23)c1F + Cc1cnc(CNC(=O)c2c(=O)c3ccc(N4CCCN(C)CC4)nc3n3c2sc2ccccc23)cn1
IC50 (second compound 0.0316 µM): > 10 µM | IC50 (second compound 0.1 µM): > 10 µM | IC50 (second compound 0.316 µM): > 10 µM | IC50 (second compound 1 µM): < 0.0316 µM | IC50 (second compound 3.16 µM): < 0.0316 µM | IC50 (second compound 10 µM): < 0.0316 µM | viability, T/C [1]: 95.8% | viability, T/C [2]: 77.4% | viability, T/C [3]: 82.9% | viability, T/C [4]: 81.8% | viability, T/C [5]: 92.8% | viability, T/C [6]: 66% | viability, T/C [7]: 63.8% | viability, T/C [8]: 68.2% | viability, T/C [9]: 60.2% | viability, T/C [10]: 80.3% | viability, T/C [11]: 76.3% | viability, T/C [12]: 49.7% | viability, T/C [13]: 55.9% | viability, T/C [14]: 55.3% | viability, T/C [15]: 51.2% | viability, T/C [16]: 56.4% | viability, T/C [17]: 57.8% | viability, T/C [18]: 49.9% | viability, T/C [19]: 45.4% | viability, T/C [20]: 56.1% | viability, T/C [21]: 47% | viability, T/C [22]: 41.4% | viability, T/C [23]: 48.9% | viability, T/C [24]: 35.4% | viability, T/C [25]: 45.1% | viability, T/C [26]: 43.5% | viability, T/C [27]: 43.6% | viability, T/C [28]: 44.3% | viability, T/C [29]: 43.9% | viability, T/C [30]: 40.9% | viability, T/C [31]: 39.1% | viability, T/C [32]: 36.3% | viability, T/C [33]: 30.1% | viability, T/C [34]: 37.2% | viability, T/C [35]: 39.6% | viability, T/C [36]: 35.4%

CC1COCCN1c1cc(C2(S(C)(=N)=O)CC2)nc(-c2ccnc3[nH]ccc23)n1 (stereo not given) + CN(C)c1ccc(Nc2c3ccc(NC(=O)CCN4CCCC4)cc3nc3cc(NC(=O)CCN4CCCC4)ccc23)cc1
IC50 (second compound 0.0316 µM): 2.21 µM | IC50 (second compound 0.1 µM): 1.87 µM | IC50 (second compound 0.316 µM): 2.11 µM | IC50 (second compound 1 µM): 2.07 µM | IC50 (second compound 3.16 µM): 1.99 µM | IC50 (second compound 10 µM): 1.49 µM | viability, T/C [1]: 92.4% | viability, T/C [2]: 85.2% | viability, T/C [3]: 86.2% | viability, T/C [4]: 75% | viability, T/C [5]: 38.7% | viability, T/C [6]: 15.9% | viability, T/C [7]: 100% | viability, T/C [8]: 81.9% | viability, T/C [9]: 84.6% | viability, T/C [10]: 69.9% | viability, T/C [11]: 33.6% | viability, T/C [12]: 17.6% | viability, T/C [13]: 103% | viability, T/C [14]: 101% | viability, T/C [15]: 97.8% | viability, T/C [16]: 76.3% | viability, T/C [17]: 35.7% | viability, T/C [18]: 15.6% | viability, T/C [19]: 115% | viability, T/C [20]: 85.6% | viability, T/C [21]: 109% | viability, T/C [22]: 70.2% | viability, T/C [23]: 38.5% | viability, T/C [24]: 18% | viability, T/C [25]: 90.8% | viability, T/C [26]: 99.2% | viability, T/C [27]: 97.5% | viability, T/C [28]: 69.1% | viability, T/C [29]: 37.1% | viability, T/C [30]: 15.8% | viability, T/C [31]: 88.2% | viability, T/C [32]: 100% | viability, T/C [33]: 81.2% | viability, T/C [34]: 59.5% | viability, T/C [35]: 32.8% | viability, T/C [36]: 20.3%
